In patent US20250221966A1, “RXFP1 AGONISTS” (BRISTOL-MYERS SQUIBB COMPANY, priority 2021, published 2025):

Target: T1, human RXFP1 (Homo sapiens, UniProt Q9HBX9)
T1 construct: expressed in transfected cells
T1 sequence (Q9HBX9 1-757): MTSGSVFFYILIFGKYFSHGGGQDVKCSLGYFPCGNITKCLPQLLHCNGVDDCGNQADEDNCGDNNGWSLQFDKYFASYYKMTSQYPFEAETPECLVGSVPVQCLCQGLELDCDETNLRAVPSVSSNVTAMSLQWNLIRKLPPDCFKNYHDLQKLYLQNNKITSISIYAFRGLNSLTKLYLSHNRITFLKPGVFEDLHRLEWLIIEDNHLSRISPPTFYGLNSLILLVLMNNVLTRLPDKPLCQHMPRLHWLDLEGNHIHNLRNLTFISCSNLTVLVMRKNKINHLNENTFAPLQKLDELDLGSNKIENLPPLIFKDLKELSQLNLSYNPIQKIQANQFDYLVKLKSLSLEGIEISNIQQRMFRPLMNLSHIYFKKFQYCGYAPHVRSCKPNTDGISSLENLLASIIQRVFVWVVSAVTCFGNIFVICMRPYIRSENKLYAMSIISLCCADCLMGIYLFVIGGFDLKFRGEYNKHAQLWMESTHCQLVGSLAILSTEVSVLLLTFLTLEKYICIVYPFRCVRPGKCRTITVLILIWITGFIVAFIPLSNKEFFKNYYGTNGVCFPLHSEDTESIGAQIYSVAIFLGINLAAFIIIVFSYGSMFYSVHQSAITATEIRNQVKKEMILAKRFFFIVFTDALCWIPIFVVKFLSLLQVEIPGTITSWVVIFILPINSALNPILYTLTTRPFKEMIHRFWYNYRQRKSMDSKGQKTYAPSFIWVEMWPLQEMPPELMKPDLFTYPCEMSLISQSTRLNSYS
Assay: RXFP1 cAMP assay (hRXFP1 HEK293 cAMP assay, HTRF)
Assay type: cell-based
Conditions: HEK293 cells stably expressing human RXFP1, 30 min at room temperature, read-out: cAMP hRXFP1 HEK293 Assay EC50
Method: RXFP1 Cyclic Adenosine Monophosphate (cAMP) Assays. […] Cells were dissociated and suspended in assay buffer. The assay buffer was HBSS buffer (with calcium and magnesium) containing 20 mM HEPES, 0.05% BSA, and 0.5 mM IBMX. Cells (3000 cells per well, except 1500 cell per well for HEK293 cells stably expressing human RXFP1) were added to 384-well Proxiplates (Perkin-Elmer). Cells were immediately treated with test compounds in DMSO (2% final) at final concentrations in the range of 0.010 nM to 50 μM. Cells were incubated for 30 min at room temperature. The level of intracellular cAMP was determined using the HTRF HiRange cAMP assay reagent kit (Cisbio) according to manufacturer's instructions. Solutions of cryptate conjugated anti-cAMP and d2 fluorophore-labelled cAMP were made in a supplied lysis buffer separately. Upon completion of the reaction, the cells were lysed with equal volume of the d2-cAMP solution and anti-cAMP solution. […] The potency and activity of a compound to […] cAMP production was then determined by fitting to a 4-parametric logistic equation from a plot of cAMP level versus compound concentrations.

SMILES | EC50 [µM]
COc1ccc(-c2cc(C(=O)O)ccc2F)cc1C(=O)N[C@@H]1C2CCC(/C2=C/C2CC2)[C@@H]1C(=O)NC1CCOCC1 (some centres unmarked) [compound 204] | 3.2
COc1ccc(Br)cc1C(=O)N[C@@H]1C2CCC(/C2=C/c2ccccc2)[C@@H]1C(=O)Nc1ccc(F)c(C(F)(F)F)c1 (some centres unmarked) [Example 77] | 0.33
COc1ccc(-c2cc(C(O)C(F)(F)F)ccc2F)cc1C(=O)N[C@@H]1C2CCC(/C2=C/C2CC2)[C@@H]1C(=O)Nc1ccc(F)c(C(F)(F)F)c1 (some centres unmarked) [Example 245] | 0.003
COc1ccc(C2=NOC3COCC23)cc1C(=O)N[C@H]1[C@@H](C(=O)NC(C)(C)C#N)[C@H]2CC[C@@H]1/C2=C\C1CC1 (some centres unmarked) [compound 633] | 0.19
COc1cc(F)c(F)cc1C(=O)N[C@@H]1C2CCC(/C2=C/Br)[C@@H]1C(=O)Nc1ccc(F)c(C(F)(F)F)c1 (some centres unmarked) [Example 11] | 0.23
COc1ccc(-c2cc([C@H](O)C(F)(F)F)ccc2F)cc1C(=O)NC1C2CCC(/C2=C/C2CC(F)(F)C2)C1C(=O)Nc1ccc(F)c(C(F)(F)F)c1 (some centres unmarked) [compound 358] | 0.018
COc1ccc(C2=NOC(C3(O)CCCC3)C2)cc1C(=O)N[C@H]1[C@@H](C(=O)Nc2ccc(F)c(C(F)(F)F)c2)[C@H]2CC[C@@H]1/C2=C\C1CC1 (single isomer, unassigned) [compound 488] | 0.0082
COc1ccc(C2=NOC3CC(CO)CC23)cc1C(=O)N[C@H]1[C@@H](C(=O)NC2(C)CCCC2)[C@H]2CC[C@@H]1/C2=C\C1CC1 (some centres unmarked) [compound 466] | 0.0039
COc1ccc(C2=NOC3(CO)CCC23CO)cc1C(=O)N[C@H]1[C@@H](C(=O)Nc2ccc(F)c(C(F)(F)F)c2)[C@H]2CC[C@@H]1/C2=C\C1CC1 (single isomer, unassigned) [compound 623] | 0.169
COc1ccc(C2=NOC3CC(CO)CC23)cc1C(=O)N[C@H]1[C@@H](C(=O)Nc2ccc(F)c(C(F)(F)F)c2)[C@H]2CC[C@@H]1C2CC1CCC1 (some centres unmarked) [compound 523] | 0.0213
COc1ccc([C@@H]2CO[C@H]3[C@@H]2OC[C@@H]3O)cc1C(=O)N[C@H]1[C@@H](C(=O)Nc2ccc(F)c(C(F)(F)F)c2)[C@H]2CC[C@@H]1/C2=C\C1CC1 [Example 536, (1R,2S,3R,4R,Z)-7-(cyclopropylmethylene)-N-(4-fluoro-3-(trifluoromethyl)phenyl)-3-(5-((3R,3aR,6S,6aR)-6-hydroxyhexahydrofuro[3,2-b]furan-3-yl)-2-methoxybenzamido)bicyclo[2.2.1]heptane-2-carboxamide] | 0.0247
O=C(NC1CCC1)OC(c1ccc(F)c(-c2ccc(OCc3ccccc3)c(C(=O)N[C@@H]3C4CCC(/C4=C/C4CC4)[C@@H]3C(=O)Nc3ccc(F)c(C(F)(F)F)c3)c2)c1)C(F)(F)F (some centres unmarked) [compound 252] | 0.011
CNC(=O)c1ccc(-c2ccc(OC)c(C(=O)N[C@@H]3C4CCC(/C4=C/c4ccccc4)[C@@H]3C(=O)Nc3ccc(F)c(C(F)(F)F)c3)c2)c(F)c1 (some centres unmarked) [compound 196] | 0.045
COc1ccc(-c2cc(C(=O)O)ccc2F)cc1C(=O)N[C@H]1[C@@H](CNc2ccc(F)c(C(F)(F)F)c2)[C@H]2CC[C@@H]1/C2=C\C1CC1 [Example 258, 3′-(((1R,2R,3R,4R,Z)-7-(cyclopropylmethylene)-3-(((4-fluoro-3-(trifluoromethyl)phenyl)amino)methyl)bicyclo[2.2.1]heptan-2-yl)carbamoyl)-6-fluoro-4′-methoxy-[1,1′-biphenyl]-3-carboxylic acid] | 0.283
COC(=O)c1cccc(-c2ccc(OC)c(C(=O)N[C@H]3[C@@H](C(=O)Nc4ccc(F)c(C(F)(F)F)c4)[C@H]4CC[C@@H]3C4=C(C)C)c2)c1 [compound 86] | 0.15
COc1cc(F)c(F)cc1C(=O)N[C@@H]1C2CCC(/C2=C/c2cccc(F)c2)[C@@H]1C(=O)Nc1ccc(F)c(C(F)(F)F)c1 (some centres unmarked) [compound 30] | 0.055
COc1ccc(-c2cc(C(OC(=O)Nc3ccccc3)C(F)(F)F)ccc2F)cc1C(=O)N[C@@H]1C2CCC(/C2=C/C2CC2)[C@@H]1C(=O)Nc1ccc(F)c(C(F)(F)F)c1 (single isomer, unassigned) [compound 229] | 0.007
COc1cc(F)c(F)cc1C(=O)N[C@@H]1C2CCC(/C2=C/c2cccc(CN3CCOCC3)c2)[C@@H]1C(=O)Nc1ccc(F)c(C(F)(F)F)c1 (some centres unmarked) [compound 70] | 2.9
COc1ccc(-c2ccc(C(=O)NCC(=O)O)cc2F)cc1C(=O)N[C@@H]1C2CCC(/C2=C/c2ccccc2)[C@@H]1C(=O)Nc1ccc(F)c(C(F)(F)F)c1 (some centres unmarked) [compound 194] | 0.005
COc1cc(F)c(F)cc1C(=O)N[C@@H]1C2CCC(/C2=C/c2ccccc2Cl)[C@@H]1C(=O)Nc1ccc(F)c(C(F)(F)F)c1 (some centres unmarked) [compound 14] | 0.22
COc1ccc(C2=NOC3CS(=O)(=O)CC23)cc1C(=O)N[C@@H]1C2CCC(/C2=C/C2CC2)[C@@H]1C(=O)Nc1ccc(F)c(C(F)(F)F)c1 (mixture of isomers) [Example 442, (1R,2S,3R,4R,Z)-7-(cyclopropylmethylene)-3-(5-(5,5-dioxido-3a,4,6,6a-tetrahydrothieno[3,4-d]isoxazol-3-yl)-2-methoxybenzamido)-N-(4-fluoro-3-(trifluoromethyl)phenyl)bicyclo[2.2.1]heptane-2-carboxamide] | 0.025
COc1ccc(C2CCCN2C(=O)CCO)cc1C(=O)N[C@@H]1C2CCC(C2=CC2CC2)[C@@H]1C(=O)Nc1ccc(F)c(C(F)(F)F)c1 (some centres unmarked) [compound 667] | 0.384

Continued, values first:

EC50 [µM] | SMILES
3.91 | COc1ccc(C2=NOC3COCC23)cc1C(=O)N[C@H]1[C@@H](C(=O)NCc2cccnc2C)[C@H]2CC[C@@H]1/C2=C\C1CC1 (some centres unmarked) [compound 721]
0.0034 | O=C(N[C@H]1[C@@H](C(=O)Nc2ccc(F)c(C(F)(F)F)c2)[C@H]2CC[C@@H]1/C2=C\C1CC1)c1cc(C2=NOC3CC(CO)CC23)cc(F)c1OCCCF (some centres unmarked) [compound 784]
0.966 | COc1cc(C(=O)N[C@H]2[C@@H](C(=O)Nc3ccc(F)c(C(F)(F)F)c3)[C@H]3CC[C@@H]2/C3=C\C2CC2)cc(C2=NOC3COCC23)c1 (single isomer, unassigned) [compound 696]
0.007 | COc1ccc(-c2cc(C3=NOC4CC(CO)CC34)ccc2F)cc1C(=O)N[C@H]1[C@@H](C(=O)Nc2ccc(F)c(C(F)(F)F)c2)[C@H]2CC[C@@H]1/C2=C\C1CC1 (some centres unmarked) [compound 953]
0.626 | COc1ccc(C2=NOC3COCC23)cc1C(=O)N[C@H]1[C@@H](C(=O)NC(C)C2CCC2)[C@H]2CC[C@@H]1/C2=C\C1CC1 (single isomer, unassigned) [compound 683]
0.0016 | COc1ccc(C2=NO[C@H]3C[C@H](CO)CN23)cc1C(=O)N[C@H]1[C@@H](C(=O)Nc2ccc(F)c(C(F)(F)F)c2)[C@H]2CC[C@@H]1/C2=C\C1CCCC1 [compound 816]
0.0033 | COc1ccc(C2=NOC3CC(C)(CO)CC23)cc1C(=O)N[C@H]1[C@@H](C(=O)Nc2ccc(F)c(C(F)(F)F)c2)[C@H]2CC[C@@H]1/C2=C\C1CCCC1 (some centres unmarked) [compound 748]
0.0014 | COc1ccc(-c2cc([C@H](OC(=O)NC3CC3)C(F)(F)F)ccc2F)cc1C(=O)N[C@H]1[C@@H](C(=O)Nc2ccc(F)c(C(F)(F)F)c2)[C@H]2CC[C@@H]1/C2=C\CCC(F)(F)F [compound 928]
0.001 | COc1c(F)cc(C2=NOC3CC(CO)CC23)cc1C(=O)N[C@H]1[C@@H](C(=O)N[C@H](C)C2(C)CC2(F)F)[C@H]2CC[C@@H]1/C2=C\C1CC1 (some centres unmarked) [compound 759]
0.001 | COc1ccc(-c2cc(C3=NOC4CC(CO)CC34)ccc2F)cc1C(=O)N[C@H]1[C@@H](C(=O)Nc2ccc(F)c(C(F)(F)F)c2)[C@H]2CC[C@@H]1/C2=C\C1CCCC1 (some centres unmarked) [compound 951]
0.0047 | O=C(N[C@H]1[C@@H](C(=O)Nc2ccc(F)c(C(F)(F)F)c2)[C@H]2CC[C@@H]1/C2=C\C1CC1)c1cc(C2=NOC3COCC23)cc(F)c1OCC1CC1 (some centres unmarked) [compound 799]
0.0061 | COc1ccc(C2=NOC3CC(CO)CC23)cc1C(=O)N[C@H]1[C@@H](C(=O)Nc2ccc(F)c(C(F)(F)F)c2)[C@H]2CC[C@@H]1/C2=C\CC1CC(F)(F)C1 (some centres unmarked) [compound 959]
0.0012 | COc1ccc(-c2cc(C(NC(=O)C3CCOCC3)C(=O)O)ccc2F)cc1C(=O)N[C@H]1[C@@H](C(=O)Nc2ccc(F)c(C(F)(F)F)c2)[C@H]2CC[C@@H]1/C2=C\CC(C)C (some centres unmarked) [compound 941]
